Earlier results as cited in patent publication US20050287177A1, “Pharmaceutical compositions” (Glaxo Group Unlimited and Smithkline Beecham Corp., priority 2002, published 2005).

Key:
[1] = elimination
[2] = colon versus small intestine

terminal half-life [1]: 1.5 to 2 h
colonic absorption [2]: very low
Compound: Cc1cn([C@H]2C[C@H](N=[N+]=[N-])[C@@H](CO)O2)c(=O)[nH]c1=O [Zidovudine, 3′-azido-3′-deoxythymidine]
